This note sets out measurements from US10342874B2, “Glucosamine peptide compounds for treating liver metabolic disorders” (Far Eastern Memorial Hospital, priority 2017, dated 2019).

Structures are written as SMILES.

One test deals with HepG2 cells. Nature of the test: Oleic acid-induced in vitro fatty liver cell model, lipid droplets by Oil Red O staining quantified by Image J. Format: cell-based, human. The conditions noted are these: for lipid droplet accumulation: HepG2, 10 nM compound for 24 hours. On the procedure: Human hepatocellular carcinoma cell line HepG2 was cultured in Dulbecco's modified Eagle's medium (DMEM, containing 4,500 mg/L D-glucose and L-glutamine) supplemented with 10% fetal bovine serum and 1% penicillin/streptomycin at 37° C. incubator with 5% CO2. To induce in vitro fatty liver cell model on HepG2 with oleic acid-bovine serum albumin complex (Sigma-Aldrich, USA), HepG2 cells were cultured in a 24-well plate at a cell volume of 8×10^4; after 18 to 24 hours when a 70% confluence of cell growth has reached, 0.1 mM of oleic acid was added for culturing for 24 hours. After the replacement of culture medium containing oleic acid, 0.5 μg/mL, 1 μg/mL, 2.5 μg/mL, 5 μg/mL and 10 μg/mL of Compound A were added to DMEM containing 2% fetal bovine serum for culturing for 8 hours; each experimental group performed four repetitions.
Oil Red O (ORO) staining was used to confirm the level of lipid droplets, e.g., amount of red particles, in HepG2. After 24 hours of oleic acid treatment, HepG2 cells were fixed with 4% paraformaldehyde for 15 minutes, followed by phosphate-buffered saline (PBS) washing for three times and then ORO staining for 1 hour. After staining, the cells were washed with PBS for three times, followed by hematoxylin staining for 5 minutes. The coverslip was reversely placed on the slide and sealed with glycerine for observation with optical microscope; images were taken and saved as electronic files.
Intracellular lipid droplets were quantified by Image J (National Institutes of Health, NIH) after adjustment to a proper threshold value. Images with at least 20 cells were analyzed and quantified by Image J with the “analyze particles” functions in threshold single sections with size (pixel^2) setting from 0.1 to 10.
(§1) Similar to Example 1, to induce in vitro fatty liver cell model on HepG2 with oleic acid, HepG2 cells were cultured in a 24-well plate at a cell volume of 8×10^4 and added with 0.1 mM of oleic acid for 24-hour culturing. After the replacement of culture medium containing oleic acid, 10 μg/mL of Compound A was added to DMEM for culturing for 4 hours, 8 hours, 16 hours, and 24 hours; each time point performed four repetitions. ORO staining was used to confirm the level of lipid droplets in HepG2, and their number and size were quantified by Image J.
Compound C, which is a derivative of Compound A, was also tested to further investigate the effect of glucosamine peptide compounds defined herein, including Compound A and its derivatives, on the formation of intracellular lipid droplets. Similar to Example 2, to induce in vitro fatty liver cell model on HepG2 with oleic acid, HepG2 cells were cultured in a 24-well plate at a cell volume of 8×10^4 and added with 0.1 mM of oleic acid for 24-hour culturing. After the replacement of culture medium containing oleic acid, 10 nM of Compound A and 10 nM of Compound C were individually added to different DMEMs for culturing for 24 hours, and four repetitions were performed for both Compound A and Compound C. ORO staining was used to confirm the level of lipid droplets in HepG2, and their number and size were quantified by Image J.

The next test has as its system HuH-7 cells. The test is described as above. Format: cell-based, human. On the procedure: as §1, with “Another human hepatocellular carcinoma cell line HuH-7 was used to test the temporal effect of Compound A to further confirm the effect of Compound A on intracellular lipid droplets. Similar” for “Similar”, “2,” for “1,”, “HuH-7” for “HepG2”, “HuH-7,” for “HepG2,”
The subject of test [1] is C57BL/6JNarl male mice fed with high fat diet. The test can be described thus: Fatty liver animal test: liver appearance and liver weight. As to conditions: HFD mice, 2 mg/kg intraperitoneal, three times a week for two weeks; compared with Group 2 (HFD). Format: in vivo. Here is the method:
(§2) 24 C57BL/6JNarl male mice at 5 weeks of age were purchased from the National Laboratory Animal Center and housed in the laboratory animal room of the Far Eastern Memorial Hospital at a constant temperature of 22° C., 55% humidity, automatic air regulation (ventilation rate of 12 times per hour), automatic light control (12:12 hour light/dark cycle), and provided with free access to water and chow diet D12450B (Research Diets, Inc.) for two weeks.
(§3) Then the 24 mice (7 weeks of age) were randomly divided into four groups, each containing six mice—Group 1 is the chow diet (CD) control group fed with chow diet D12450B; Group 2 is the high fat diet (HFD) group fed with high fat diet (i.e., modified D12492); Group 3 is the HFD+Compound A treatment group provided with high fat diet and Compound A; and Group 4 is the HFD+Compound B treatment group provided with high fat diet and Compound B.
(§4) Group 1 was fed with chow diet for 18 weeks, followed by 2 more weeks of chow diet, and then given an intraperitoneal injection of saline, without receiving Compound A or Compound B. Group 2, the HFD group, was fed with high fat diet for 18 weeks, followed by 2 more weeks of high fat diet, and then given an intraperitoneal injection of saline, without receiving Compound A or Compound B. Group 3, the HFD+Compound A treatment group, was fed with high fat diet for 18 weeks and then given an intraperitoneal injection of 2 mg/kg of Compound A per mouse, three times a week (once every one or two days) for two weeks, a total of six injections of Compound A. Group 4, the HFD+Compound B treatment group, was fed with high fat diet for 18 weeks and then given an intraperitoneal injection of 2 mg/kg of Compound B per mouse, three times a week (once every one or two days) for two weeks, a total of six injections of Compound B. After completion of feeding and treatment described above, the mice were weighed and euthanized with CO2, and their blood and liver tissue specimens were collected for analysis.

Test [2] has the same test system. Nature of the test: Blood biochemistry of fatty liver mice. It is filed as in vivo. The conditions noted are these: HFD mice; for aspartate transaminase (AST) and alanine transaminase (ALT) compared with Group 2: 2 mg/kg, statement in words; for ALT / AST / GLU / T-CHO / TG: serum, 2 mg/kg intraperitoneal, six injections in two weeks, mean ± SD, six mice. Here is the method:
as §2, §3, §4
Blood samples from mice of each group in Example 4 were tested for measurement of serum aspartate transaminase (AST), alanine transaminase (ALT), total cholesterol (T-CHO), triglyceride (TG) and glucose (GLU). AST and ALT are common measures of liver function.

Test [3] shares this test system. The test can be described thus: Analysis of fat amount in liver tissue (H&E stain, Image J). Format: in vivo. As to conditions: HFD mice; for percentage of area of lipid droplets relative to the total field of view in liver tissue: 2 mg/kg intraperitoneal, compared with Group 2 (HFD). Here is the method:
as §2
(§5) Then the 24 mice (7 weeks of age) were randomly divided into four groups, each containing six mice—Group 1 is the chow diet (CD) control group fed with chow diet D12450B; Group 2 is the high fat diet (HFD) group fed with high fat diet (i.e., modified D12492); Group 3 is the HFD+Compound A treatment group provided with high fat diet and Compound A; and Group 4 is the HFD+Compound B treatment group provided with high fat diet and Compound B. […]
Image J was used to quantify the percentage of area of lipid droplets relative to the total field of view in mice liver tissues (FIG. 5E). […]

For test [4] the test system is unchanged. Nature of the test: Analysis of liver tissue fibrosis (Masson's Trichrome, collagen proportionate area). The conditions noted are these: HFD mice; for percentage of collagen proportionate area (CPA) in liver tissue: 2 mg/kg intraperitoneal, compared with Group 2 (HFD). Format: in vivo. Here is the method:
as §2, §5
Nuance multispectral image analysis module (PerknElmer, Inc) was used to quantify the collagen proportionate area (CPA), as shown in FIG. 6E. […]

Consider `CC(=O)N[C@@H]1[C@@H](O[C@H](C)C(=O)N[C@@H](C)C(=O)N[C@H](CCC(=O)O)C(N)=O)[C@H](O)[C@@H](CO)O[C@H]1O` [Compound A], for which the lipid droplet accumulation result with HepG2 cells is recorded as “reduced significantly”. Besides, in the test on HepG2 cells (HepG2, 10 μg/mL), the “treatment time after which significant reduction of lipid droplets is observed” value was 4 h and the “treatment time at which maximum reduction of lipid droplets occurs” value was determined as 8 h. Also, the “number and size of lipid droplets” value with HepG2 cells (HepG2, 10 μg/mL compound for 4, 8, 16 and 24 hours) is “decrease with the increase of treatment time of Compound A in a time-dependent manner”. Further, the “number and size of lipid droplets” value in the test on HepG2 cells (HepG2, 0.1 mM oleic acid 24 h, then 0.5-10 μg/mL compound for 8 hours) is on record as “decrease with the increase of Compound A concentration in a dose-dependent manner”. For the same compound, in the test with HuH-7 cells (HuH-7, 10 μg/mL), the “treatment time after which significant reduction of lipid droplets is observed” value was 4 h and the “treatment time at which maximum reduction of lipid droplets occurs” value came out at 16 h. The “number and size of lipid droplets” value with HuH-7 cells (HuH-7, 10 μg/mL compound for 4, 8, 16 and 24 hours) is on record as “decrease with the increase of treatment time of Compound A in a time-dependent manner”. The “liver appearance (size)” value in test [1] is “smaller livers than Group 2”. Besides, in test [2], the “aspartate transaminase (AST) and alanine transaminase (ALT) compared with Group 2” value is listed as “significantly lower”; the ALT is 240.5 ± 83.1 U/L; the AST is recorded as 200.0 ± 68.4 U/L; the GLU was 287.2 ± 60.0 mg/dL. In test [2], this compound yielded a T-CHO of 225.3 ± 53.2 mg/dL and a TG of 30.1 ± 9.8 mg/dL. Also, in test [3], the “percentage of area of lipid droplets relative to the total field of view in liver tissue” value is on record as “much lower percentage of area of lipid droplets relative to the total field of view than Group 2”. Also, in test [4], the “percentage of collagen proportionate area (CPA) in liver tissue” value is on record as “much lower percentage of collagen proportionate area than Group 2”.

In the case of `CCCCCCCCCCCCCCCC(=O)OCC(COP(=O)(O)OCCNC(=O)[C@H](C)NC(=O)CC[C@@H](NC(=O)[C@H](C)NC(=O)C(C)O[C@H]1[C@H](O)[C@@H](CO)OC(O)[C@@H]1NC(C)=O)C(N)=O)OC(=O)CCCCCCCCCCCCCCC` (stereo partly shown) [Compound B], in test [1], the average liver weight result is given as “less than Group 2”, the “liver appearance (size)” value is “smaller livers than Group 2” and the “ratio of liver weight to body weight (average liver weight percentage)” value is “smaller average liver weight percentage than Group 2”. In test [2], the “aspartate transaminase (AST) and alanine transaminase (ALT) compared with Group 2” value is “significantly lower”; the ALT is listed as 185.4 ± 83.1 U/L; the AST turned out to be 191.3 ± 74.0 U/L; the GLU worked out at 274.4 ± 31.0 mg/dL. In test [2], the T-CHO came to 234.0 ± 33.6 mg/dL and the TG is 42.2 ± 18.9 mg/dL. Also, in test [3], the “percentage of area of lipid droplets relative to the total field of view in liver tissue” value is recorded as “much lower percentage of area of lipid droplets relative to the total field of view than Group 2”. Besides, in test [3] (Group 4 compared with Group 3), the “alleviating accumulation of hepatic fat induced by high fat diet, comparison of the compounds” value is “more effective than Compound A”. Also, in test [4], the “percentage of collagen proportionate area (CPA) in liver tissue” value is given as “much lower percentage of collagen proportionate area than Group 2”. In addition, the “alleviating liver fibrosis complicated with fatty liver, comparison of the compounds” value in test [4] (Group 4 compared with Group 3) is given as “more effective than Compound A”.

As for `CCCCOC(=O)[C@@H](CCC(N)=O)NC(=O)[C@H](C)NC(=O)[C@@H](C)OC1C(NC(C)=O)[C@@H](O)OC(CO)[C@H]1O` (stereo partly shown) [Compound C], the lipid droplet accumulation result in the test with HepG2 cells was “reduced significantly”.
